# Experimental data as given in US6251948A, “Tri-and tetra-substituted guanidines and their use as excitatory amino acid antagonists” (State of Oregon, acting by and through the Oregon State …, priority 1995, dated 2001).
# Structures can show the parent of a compound that is named as a salt.
# Tests used:
# [1] = test system: lesions caused by NMDA injection; test: In vivo neurotoxicity assay: NMDA-induced lesion (model of McDonald et al.); set-up: species or system rat; details: 0.1 to 100 umol/kg of body weight; intraperitoneal, 15 minutes following cerebral NMDA injection
# Text: In the in vivo neurotoxicity studies, the experimental model of McDonald, J. W., et al., (In: Sigma and Phencyclidine-like Compounds as Molecular Probes in Biology, Ed. Domino, E. F., and Kamenka, J.-M., pp. 697-707 (1988), NPP Books, Ann Arbor, Mich.) can be employed. In this model, an NMDA injection into one cerebral hemisphere of a rat pup causes brain injury which resembles the lesion produced by hypoxia-ischemia. The ability of test compounds to limit the NMDA-induced lesion is a measure of their neuroprotective properties; and, since the compounds are administered intraperitoneally, the model also provides information about a compound's ability to cross the blood-brain barrier.
# The experimental model of McDonald, J. W., et al., supra, was employed with the single alteration in protocol of an intraperitoneal injection of the test compound 15 minutes following, rather than preceding, the cerebral NMDA injection.
# sigma brain receptor = details: Weber et al. 1986; U.S. Pat. No. 4,709,094; cited from earlier work
# Korsakoff's disease = details: pretreatment; rat model; cited from earlier work
compound,measurement,setting,value
"CCc1cccc(N(C)C(=N)Nc2cccc3ccccc23)c1 [Compound VII, N-(1-Naphthyl)-N'-(m-ethylphenyl)-N'-methylquanidine Hydrochloride]",protection against the lesions caused by NMDA injection,[1],protect against the lesions caused by NMDA injection
"Cc1ccccc1NC(=N)Nc1ccccc1C [DTG, 1,3 di-o-tolyl-guanidine]",selectivity for the sigma receptor,sigma brain receptor,strong selectivity for the sigma receptor
"C[C@]12N[C@H](Cc3ccccc31)c1ccccc12 [MK-801, (+)-5-methyl-10,11-dihydro-5H-dibenzo[a,d]cycloheptene-5,10-imine]","extent of cell loss, hemorrhages and amino acid changes",Korsakoff's disease,"markedly attenuates the extent of cell loss, hemorrhages and amino acid changes"
